For data set [1] the following is noted: Lithium 1 mM; cited from earlier work.
The subject of data set [2] is C26 cells. In words: Survival of BALB/c mice inoculated with C26 tumor cells. Type of data set: in vivo. The following applies: C26 cells in right-hind foot pad. Here is the method: BALB/c mice, female, 8 weeks old at the initiation of experiments were tested. Experiments were performed with 35 mice that were divided into 5 groups.
Mitomycin C (MMC), injection dose of 10 mg/Kg body.
C26 cells (originating from mouse colon carcinoma) were grown in cell culture flask essentially as described above under the in vitro experiments. At day 0 of the experiment, the cells were harvested, washed several times with PBS and at the final wash with Hank's buffer, counted and immediately injected subcutaneously into the right-hind foot pad of the mice. The injected dose was 5×10^5 cells/30 μl.
Saline and the chemotherapeutic formulations were administered on days 5, 12 and 19 of the experiment, by injection into the tail vein. All the injected volumes were 0.1 ml. Lithium, at 1 mM, was given in the drinking water continuously throughout the experiment, from the day of tumor inoculation.
35 mice, inoculated with tumor cells, were divides into groups and each group received a different treatment, as described hereinabove and is presented in Table 2 above. The animal survival was monitored continuously, from the first day of tumor inoculation.
FIG. 8 presents the animal survival, expressed in percentages of the total number of animals in the group.

Data set [3] concerns C6 cells. The following applies: doxorubicin efflux, absence of a chemosensitizer. Here is the method:
Cells were grown in monolayers as described above. Several days prior to an experiment the cells (at a density in the range of 5×10^4-5×10^5 cells/ml) were seeded into 6 multiwell culture plates. The experiments were performed when the cells reached confluency.
At the end of the incubation the media was removed and the cells were incubated with “drug free media”, which consisted of either buffer alone, for cells loaded with drug only, or buffer that contained the chemosensitizer used at the same dose as in the incubation, for the cells loaded with the drug and the chemosensitizer. This replacement of the loading with the “drug free media” was performed in order to create the driving force for drug efflux from the cell into that external media. At designated periods (time points), the external media was collected and thereafter replaced by fresh “drug free media”, in order to maintain a unidirectional flux, from the cell out. The drug concentration was measured in each of the collected media, and in the cells at the end of the experiment.

Bounds are passed on as bounds.

Consider `[Li]` [Lithium], for which the “in vivo safety of the in vitro dose” value in data set [1] is “within the in vivo safe range”.

For the molecule `CO[C@@]12[C@H](COC(N)=O)C3=C(C(=O)C(C)=C(N)C3=O)N1C[C@@H]1N[C@@H]12` [Free MMC, Mitomycin C], the “day on which all animals were dead” value in data set [2] (MMC 10 mg/Kg i.v. on days 5, 12, 19) is 33 days. Moreover, in data set [2] (MMC 10 mg/Kg i.v. on days 5, 12, 19, Lithium 1 mM in drinking water where given), the “day on which animals started dying” value worked out at 29 days.

Consider `COc1cccc2c1C(=O)c1c(O)c3c(c(O)c1C2=O)C[C@@](O)(C(=O)CO)C[C@@H]3O[C@H]1C[C@H](N)[C@H](O)[C@H](C)O1` [F-DOX, doxorubicin], for which, in data set [3], the “fraction of total intracellular drug load diffused out of the cell after 5 minutes” value was “about 30%” and the “time for complete depletion of the cell from the drug” value was at most 3 h.

These data come from patent publication US20040006043A1, “Methods, pharmaceutical compositions and pharmaceutical kits for enhancing the therapeutic efficiency of cancer chemotherapeutic agents” (RAMOT UNIVERSITY AUTHORITY FOR APPLIED RESEARCH & …, priority 2002, published 2004).
